# Patent US10315996B2, “ROR gamma (RORγ) modulators” (LEAD PHARMA HOLDING B.V., priority 2015, dated 2019)
# Molecular target: T1, RORγ (Homo sapiens, UniProt P51449)
# T1 construct: expressed in transfected cells; host or cells: 293FT cells (Invitrogen), expression vector pFN26A (Promega)
# T1 sequence (P51449 269-508 limits assumed): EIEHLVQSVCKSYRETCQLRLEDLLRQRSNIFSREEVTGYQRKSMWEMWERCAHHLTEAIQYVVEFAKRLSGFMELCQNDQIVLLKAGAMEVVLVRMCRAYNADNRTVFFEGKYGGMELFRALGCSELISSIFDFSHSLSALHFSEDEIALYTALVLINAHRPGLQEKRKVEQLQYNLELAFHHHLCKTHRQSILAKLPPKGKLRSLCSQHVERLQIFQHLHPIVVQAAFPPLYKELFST
# Assay: RORγ GAL4 reporter gene assay
# Format: cell-based
# Conditions: inhibition of RORγ activity, GAL4-RORγ-LBD luciferase reporter in 293FT cells, overnight incubation; read-out: mean pIC50 (converted)
# How it was run: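 293FT cells were transiently co-transfected with GAL4-DBD–RORγ-LBD (or GAL4-VP16 control) and a 9×UAS luc2P reporter, then plated at 60,000 cells/well. Compound was added at final 0.2% DMSO for 16-24 h at 37 °C, and inhibition was measured by firefly luciferase luminescence.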
row,SMILES,IC50
1,"CCN(C(=O)c1ccc(NC(=O)Cc2ccc(S(=O)(=O)CC3CC3)cc2)cc1F)c1ccccc1Cl [Example 118, N-(2-chlorophenyl)-4-[2-(4-cyclopropylmethanesulfonylphenyl)acetamido]-N-ethyl-2-fluorobenzamide]",≤ 10 nM
2,"CCN(C(=O)c1ccc(NC(=O)Cc2ccc(S(=O)(=O)CC3CC3)cc2)cc1F)c1cccc(C)c1C [Example 119, 4-[2-(4-cyclopropylmethanesulfonylphenyl)acetamido]-N-(2,3-dimethylphenyl)-N-ethyl-2-fluorobenzamide]",≤ 10 nM
3,"CCN(C(=O)c1ccc(NC(=O)Cc2ccc(S(=O)(=O)CC3CC3)cc2)cc1Cl)c1cccc(C)c1C [Example 120, 2-chloro-4-[2-(4-cyclopropylmethanesulfonylphenyl)acetamido]-N-(2,3-dimethylphenyl)-N-ethylbenzamide]",≤ 100 nM
4,"CC(C)(C)C1COc2ccccc2N1C(=O)c1ccc(NC(=O)Cc2ccc(S(=O)(=O)CC3CC3)cc2)cc1 (centres unmarked) [Example 121, N-[4-(3-tert-butyl-3,4-dihydro-2H-1,4-benzoxazine-4-carbonyl)phenyl]-2-(4-cyclopropylmethanesulfonylphenyl)acetamide]",≤ 100 nM
5,"COc1ccccc1N(C)C(=O)c1ccc(NC(=O)Cc2ccc(S(=O)(=O)CC3CC3)cc2)cc1C [Example 122, 4-[2-(4-cyclopropylmethanesulfonylphenyl)acetamido]-N-(2-methoxyphenyl)-N,2-dimethylbenzamide]",≤ 10 nM
6,"O=C(Cc1ccc(S(=O)(=O)CC2CC2)cc1)Nc1ccc(C(=O)N(CC(F)(F)F)c2ccccc2)c(Cl)c1 [Example 123, 2-chloro-4-[2-(4-cyclopropylmethanesulfonylphenyl)acetamido]-N-phenyl-N-(2,2,2-trifluoroethyl)benzamide]",≤ 10 nM
7,"COc1ccccc1N(C)C(=O)c1ccc(NC(=O)Cc2ccc(S(=O)(=O)CC3CC3)cc2)cc1F [Example 124, 4-[2-(4-cyclopropylmethanesulfonylphenyl)acetamido]-2-fluoro-N-(2-methoxyphenyl)-N-methylbenzamide]",≤ 10 nM
8,"COc1ccccc1N(C)C(=O)c1ccc(NC(=O)Cc2ccc(S(=O)(=O)CC3CC3)cc2)cc1Cl [Example 125, 2-chloro-4-[2-(4-cyclopropylmethanesulfonylphenyl)acetamido]-N-(2-methoxyphenyl)-N-methylbenzamide]",≤ 10 nM
9,"CN(C(=O)c1ccc(NC(=O)Cc2ccc(S(=O)(=O)CC3CC3)cc2)cc1F)c1ccccc1F [Example 126, 4-[2-(4-cyclopropylmethanesulfonylphenyl)acetamido]-2-fluoro-N-(2-fluorophenyl)-N-methylbenzamide]",≤ 10 nM
10,"CN(C(=O)c1ccc(NC(=O)Cc2ccc(S(=O)(=O)CC3CC3)cc2)cc1Cl)c1ccccc1F [Example 127, 2-chloro-4-[2-(4-cyclopropylmethanesulfonylphenyl)acetamido]-N-(2-fluorophenyl)-N-methylbenzamide]",≤ 10 nM
11,"CCN(C(=O)c1ccc(NC(=O)Cc2ccc(S(=O)(=O)CC3CC3)cc2)cc1Cl)c1ccccc1Cl [Example 128, 2-chloro-N-(2-chlorophenyl)-4-[2-(4-cyclopropylmethanesulfonylphenyl)acetamido]-N-ethylbenzamide]",≤ 10 nM
12,"CCN(C(=O)c1ccc(NC(=O)Cc2ccc(S(=O)(=O)CC3CC3)cc2)cc1Cl)c1ccccc1C [Example 129, 2-chloro-4-[2-(4-cyclopropylmethanesulfonylphenyl)acetamido]-N-ethyl-N-(2-methylphenyl)benzamide]",≤ 10 nM
13,"CC(C)(C)N(C(=O)c1ccc(NC(=O)Cc2ccc(S(=O)(=O)CC3CC3)cc2)cc1)c1ccccc1 [Example 130, N-tert-butyl-4-[2-(4-cyclopropylmethanesulfonylphenyl)acetamido]-N-phenylbenzamide]",≤ 10 nM

# Results, then the compound that gave them:
row,IC50,SMILES
1,≤ 10 nM,"CC(C)(C)N(C(=O)c1ccc(NC(=O)Cc2ccc(S(=O)(=O)NC3CC3)cc2)cc1)c1ccccc1 [Example 131, N-tert-butyl-4-{2-[4-(cyclopropylsulfamoyl)phenyl]acetamido}-N-phenylbenzamide]"
2,≤ 100 nM,"Cc1ccc(N(C(=O)c2ccc(NC(=O)Cc3ccc(S(=O)(=O)NC4CC4)cc3)cc2)C(C)(C)C2CCCO2)cc1 (centres unmarked) [Example 132, 4-{2-[4-(cyclopropylsulfamoyl)phenyl]acetamido}-N-(4-methylphenyl)-N-[2-(oxolan-2-yl)propan-2-yl]benzamide]"
3,≤ 100 nM,"Cc1ccc(N(C(=O)c2ccc(NC(=O)Cc3ccc(S(=O)(=O)CC4CC4)cc3)cc2)C(C)(C)C2CCCO2)cc1 (centres unmarked) [Example 133, 4-[2-(4-cyclopropylmethanesulfonylphenyl)acetamido]-N-(4-methylphenyl)-N-[2-(oxolan-2-yl)propan-2-yl]benzamide]"
4,≤ 10 nM,"CC(C)(C)N(C(=O)c1ccc(NC(=O)Cc2ccc(S(=O)(=O)CC3CC3)cc2)c(F)c1)c1ccccc1 [Example 134, N-tert-butyl-4-[2-(4-cyclopropylmethanesulfonylphenyl)acetamido]-3-fluoro-N-phenylbenzamide]"
5,≤ 100 nM,"CC(C)(C1CCCO1)N(C(=O)c1ccc(NC(=O)Cc2ccc(S(=O)(=O)CC3CC3)cc2)cc1)c1ccccc1 (centres unmarked) [Example 135, 4-[2-(4-cyclopropylmethanesulfonylphenyl)acetamido]-N-[2-(oxolan-2-yl)propan-2-yl]-N-phenylbenzamide]"
6,≤ 100 nM,"O=C(Cc1ccc(S(=O)(=O)CC2CC2)cc1)Nc1ccc(C(=O)N(c2ccccn2)C2CCOC2)cc1 (centres unmarked) [Example 136, 4-[2-(4-cyclopropylmethanesulfonylphenyl)acetamido]-N-(oxolan-3-yl)-N-(pyridin-2-yl)benzamide]"
7,≤ 100 nM,"O=C(Cc1ccc(S(=O)(=O)CC2CC2)cc1)Nc1ccc(C(=O)N(c2ccccn2)C2CC2)cc1 [Example 137, N-cyclopropyl-4-[2-(4-cyclopropylmethanesulfonylphenyl)acetamido]-N-(pyridin-2-yl)benzamide]"
8,≤ 100 nM,"CC(C)(CO)N(C(=O)c1ccc(NC(=O)Cc2ccc(S(=O)(=O)CC3CC3)cc2)cc1)c1ccccc1 [Example 138, 4-[2-(4-cyclopropylmethanesulfonylphenyl)acetamido]-N-(1-hydroxy-2-methylpropan-2-yl)-N-phenylbenzamide]"
9,≤ 10 nM,"O=C(Cc1ccc(S(=O)(=O)CC2CC2)cc1)Nc1ccc(C(=O)N(c2ccccn2)C2CCC2)cc1 [Example 139, N-cyclobutyl-4-[2-(4-cyclopropylmethanesulfonylphenyl)acetamido]-N-(pyridin-2-yl)benzamide]"
10,≤ 10 nM,"O=C(Cc1ccc(S(=O)(=O)CC2CC2)cc1)Nc1ccc(C(=O)N(c2ccccc2)C2CC2)cc1 [Example 140, N-cyclopropyl-4-[2-(4-cyclopropylmethanesulfonylphenyl)acetamido]-N-phenylbenzamide]"
11,≤ 10 nM,"O=C(Cc1ccc(S(=O)(=O)CC2CC2)cc1)Nc1ccc(C(=O)N(c2ccccc2)C2CCC2)cc1 [Example 141, N-cyclobutyl-4-[2-(4-cyclopropylmethanesulfonylphenyl)acetamido]-N-phenylbenzamide]"
12,≤ 10 nM,"CC1(N(C(=O)c2ccc(NC(=O)Cc3ccc(S(=O)(=O)CC4CC4)cc3)cc2)c2ccccc2)CC1 [Example 142, 4-[2-(4-cyclopropylmethanesulfonylphenyl)acetamido]-N-(1-methylcyclopropyl)-N-phenylbenzamide]"
13,≤ 100 nM,"O=C(Cc1ccc(S(=O)(=O)CC2CC2)cc1)Nc1ccc(C(=O)N(c2cccnc2)C2CC2)cc1 [Example 143, N-cyclopropyl-4-[2-(4-cyclopropylmethanesulfonylphenyl)acetamido]-N-(pyridin-3-yl)benzamide]"
14,≤ 10 nM,"O=C(Cc1ccc(S(=O)(=O)CC2CC2)cc1)Nc1ccc(C(=O)N(c2ccccc2)C2CC(F)(F)C2)cc1 [Example 144, 4-[2-(4-cyclopropylmethanesulfonylphenyl)acetamido]-N-(3,3-difluorocyclobutyl)-N-phenylbenzamide]"
15,≤ 10 nM,"COC(=O)C(C)(C)N(C(=O)c1ccc(NC(=O)Cc2ccc(S(=O)(=O)CC3CC3)cc2)cc1)c1ccccc1 [Example 145, methyl 2-(1-{4-[2-(4-cyclopropylmethanesulfonylphenyl)acetamido]phenyl}-N-phenylformamido)-2-methylpropanoate]"
16,≤ 10 nM,"CC(N(C(=O)c1ccc(NC(=O)Cc2ccc(S(=O)(=O)CC3CC3)cc2)cc1)c1ccccc1)C(F)(F)F (centres unmarked) [Example 146, 4-[2-(4-cyclopropylmethanesulfonylphenyl)acetamido]-N-phenyl-N-(1,1,1-trifluoropropan-2-yl)benzamide]"
17,≤ 1000 nM,"O=C(Cc1ccc(S(=O)(=O)CC2CC2)cc1)Nc1ccc(C(=O)Nc2c(Cl)cccc2Cl)cc1 [Example 147, 4-[2-(4-cyclopropylmethanesulfonylphenyl)acetamido]-N-(2,6-dichlorophenyl)benzamide]"
18,≤ 100 nM,"CC(N(C(=O)c1ccc(NC(=O)Cc2ccc(S(=O)(=O)NC3CC3)cc2)cc1)c1ccccc1)C(F)(F)F (centres unmarked) [Example 148, 4-{2-[4-(cyclopropylsulfamoyl)phenyl]acetamido}-N-phenyl-N-(1,1,1-trifluoropropan-2-yl)benzamide]"
19,≤ 10 nM,"O=C(Cc1ccc(S(=O)(=O)CC2CC2)cc1)Nc1ccc(C(=O)N(c2ccccc2)C2COC2)cc1 [Example 149, 4-[2-(4-cyclopropylmethanesulfonylphenyl)acetamido]-N-(oxetan-3-yl)-N-phenylbenzamide]"
